Drawing on ChEMBL document CHEMBL1150977, “A quantitative analysis of kinase inhibitor selectivity” (Nat Biotechnol, 2008), this text covers Kd for five compounds.

For assay [1], the target named is T1, Activin receptor type-1 (Homo sapiens, UniProt Q04771).
T1 sequence (Q04771 whole entry): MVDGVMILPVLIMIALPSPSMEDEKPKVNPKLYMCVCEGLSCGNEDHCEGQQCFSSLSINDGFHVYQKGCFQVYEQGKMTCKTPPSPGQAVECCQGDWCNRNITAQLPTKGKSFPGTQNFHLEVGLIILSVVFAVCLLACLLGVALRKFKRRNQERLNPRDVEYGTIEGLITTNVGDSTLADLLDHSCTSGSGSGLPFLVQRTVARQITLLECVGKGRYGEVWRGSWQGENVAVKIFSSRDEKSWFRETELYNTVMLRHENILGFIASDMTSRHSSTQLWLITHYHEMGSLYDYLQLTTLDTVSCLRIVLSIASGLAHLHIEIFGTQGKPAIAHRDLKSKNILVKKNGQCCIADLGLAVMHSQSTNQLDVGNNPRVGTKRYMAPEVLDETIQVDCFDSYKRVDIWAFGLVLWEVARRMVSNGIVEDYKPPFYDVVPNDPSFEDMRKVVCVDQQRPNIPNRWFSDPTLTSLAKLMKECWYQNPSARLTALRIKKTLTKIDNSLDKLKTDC

The target of assay [2] is T2, Serine/threonine-protein kinase LATS1 (Homo sapiens, UniProt O95835).
T2 sequence (O95835 whole entry): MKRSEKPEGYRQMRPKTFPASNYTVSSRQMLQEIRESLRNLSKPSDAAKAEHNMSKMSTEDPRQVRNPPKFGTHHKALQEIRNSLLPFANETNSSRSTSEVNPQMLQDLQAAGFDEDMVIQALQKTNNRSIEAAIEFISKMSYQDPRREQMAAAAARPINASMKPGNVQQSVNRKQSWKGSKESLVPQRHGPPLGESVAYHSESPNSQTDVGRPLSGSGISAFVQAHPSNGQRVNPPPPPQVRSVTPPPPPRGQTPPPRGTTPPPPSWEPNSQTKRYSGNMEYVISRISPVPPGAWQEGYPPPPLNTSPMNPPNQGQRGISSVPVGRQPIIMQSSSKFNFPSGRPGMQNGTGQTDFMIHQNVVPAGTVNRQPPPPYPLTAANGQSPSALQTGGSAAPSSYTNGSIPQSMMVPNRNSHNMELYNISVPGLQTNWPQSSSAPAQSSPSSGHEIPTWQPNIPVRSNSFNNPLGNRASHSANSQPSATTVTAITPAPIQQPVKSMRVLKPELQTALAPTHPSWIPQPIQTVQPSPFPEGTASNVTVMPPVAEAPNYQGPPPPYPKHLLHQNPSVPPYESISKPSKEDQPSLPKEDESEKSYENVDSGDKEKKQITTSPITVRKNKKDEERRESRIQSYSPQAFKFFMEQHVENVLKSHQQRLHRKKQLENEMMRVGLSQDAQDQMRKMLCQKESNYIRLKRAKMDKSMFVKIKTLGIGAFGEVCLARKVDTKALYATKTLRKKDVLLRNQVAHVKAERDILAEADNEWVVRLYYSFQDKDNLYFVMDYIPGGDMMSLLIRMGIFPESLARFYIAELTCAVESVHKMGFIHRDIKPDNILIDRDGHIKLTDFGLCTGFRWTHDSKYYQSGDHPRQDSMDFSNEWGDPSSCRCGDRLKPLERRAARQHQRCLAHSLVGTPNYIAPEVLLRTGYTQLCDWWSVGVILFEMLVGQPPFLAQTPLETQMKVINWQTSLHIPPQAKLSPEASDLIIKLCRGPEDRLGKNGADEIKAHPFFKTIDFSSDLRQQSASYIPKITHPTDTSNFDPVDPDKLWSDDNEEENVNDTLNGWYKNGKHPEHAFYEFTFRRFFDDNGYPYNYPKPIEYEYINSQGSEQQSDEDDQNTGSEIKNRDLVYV

Assay [3] deals with T3, Mitogen-activated protein kinase kinase kinase 5 (Homo sapiens, UniProt Q99683).
T3 sequence (Q99683 whole entry): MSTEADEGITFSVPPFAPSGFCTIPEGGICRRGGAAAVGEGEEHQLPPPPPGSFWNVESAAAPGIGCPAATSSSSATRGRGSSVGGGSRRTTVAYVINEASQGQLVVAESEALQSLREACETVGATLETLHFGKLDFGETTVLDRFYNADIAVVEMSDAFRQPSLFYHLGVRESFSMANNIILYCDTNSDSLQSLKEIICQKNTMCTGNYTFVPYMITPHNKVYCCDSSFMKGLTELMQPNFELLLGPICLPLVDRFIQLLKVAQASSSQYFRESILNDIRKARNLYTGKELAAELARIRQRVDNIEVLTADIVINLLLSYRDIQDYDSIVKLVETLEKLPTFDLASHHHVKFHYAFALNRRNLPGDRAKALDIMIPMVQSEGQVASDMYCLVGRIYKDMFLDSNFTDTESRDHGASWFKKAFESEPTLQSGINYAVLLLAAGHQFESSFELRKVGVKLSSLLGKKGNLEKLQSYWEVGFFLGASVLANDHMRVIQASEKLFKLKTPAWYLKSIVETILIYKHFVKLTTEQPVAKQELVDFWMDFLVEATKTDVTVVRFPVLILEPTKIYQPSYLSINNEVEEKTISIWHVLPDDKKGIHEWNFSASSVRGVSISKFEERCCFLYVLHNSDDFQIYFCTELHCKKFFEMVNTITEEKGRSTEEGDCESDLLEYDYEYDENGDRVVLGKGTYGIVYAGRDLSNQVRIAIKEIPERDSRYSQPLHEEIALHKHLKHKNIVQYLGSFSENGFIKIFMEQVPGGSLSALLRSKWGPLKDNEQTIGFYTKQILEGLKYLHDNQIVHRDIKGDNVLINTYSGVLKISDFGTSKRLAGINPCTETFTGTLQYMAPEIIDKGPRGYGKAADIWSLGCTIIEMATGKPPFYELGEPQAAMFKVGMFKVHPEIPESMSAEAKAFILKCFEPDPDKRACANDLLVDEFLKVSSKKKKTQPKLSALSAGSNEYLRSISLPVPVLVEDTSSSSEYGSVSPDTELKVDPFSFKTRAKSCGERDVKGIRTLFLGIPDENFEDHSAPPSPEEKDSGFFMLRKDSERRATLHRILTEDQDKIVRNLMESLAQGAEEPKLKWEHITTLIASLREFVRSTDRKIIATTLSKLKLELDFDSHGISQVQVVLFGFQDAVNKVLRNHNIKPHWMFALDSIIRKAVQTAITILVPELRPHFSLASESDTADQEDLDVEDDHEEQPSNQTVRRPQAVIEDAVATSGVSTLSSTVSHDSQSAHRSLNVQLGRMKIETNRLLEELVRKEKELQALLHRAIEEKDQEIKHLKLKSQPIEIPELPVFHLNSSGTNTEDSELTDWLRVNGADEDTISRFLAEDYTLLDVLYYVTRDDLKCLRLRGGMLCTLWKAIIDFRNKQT

Assay [4] addresses Casein kinase I isoform delta (Homo sapiens, UniProt P48730).
For assay [5], the target named is Glycogen synthase kinase-3 beta (Homo sapiens, UniProt P49841).
Chain of Glycogen synthase kinase-3 beta (P49841 whole entry): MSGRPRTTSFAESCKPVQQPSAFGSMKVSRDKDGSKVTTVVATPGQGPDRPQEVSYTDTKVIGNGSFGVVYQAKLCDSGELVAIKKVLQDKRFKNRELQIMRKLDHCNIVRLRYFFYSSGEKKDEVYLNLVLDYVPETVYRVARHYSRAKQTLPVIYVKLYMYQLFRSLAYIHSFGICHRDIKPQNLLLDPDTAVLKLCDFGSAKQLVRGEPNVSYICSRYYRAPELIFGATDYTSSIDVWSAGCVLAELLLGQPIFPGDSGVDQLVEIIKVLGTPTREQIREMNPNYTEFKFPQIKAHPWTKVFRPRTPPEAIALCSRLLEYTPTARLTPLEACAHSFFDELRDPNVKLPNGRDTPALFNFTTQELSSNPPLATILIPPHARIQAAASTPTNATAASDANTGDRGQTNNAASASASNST

The pKd is the negative decadic logarithm of the Kd, by convention in mol/L. Low readings indicate a large Kd, high ones a small Kd.

pKd: −log10 of the molar value.

Chain of Casein kinase I isoform delta (P48730 whole entry, canonical isoform): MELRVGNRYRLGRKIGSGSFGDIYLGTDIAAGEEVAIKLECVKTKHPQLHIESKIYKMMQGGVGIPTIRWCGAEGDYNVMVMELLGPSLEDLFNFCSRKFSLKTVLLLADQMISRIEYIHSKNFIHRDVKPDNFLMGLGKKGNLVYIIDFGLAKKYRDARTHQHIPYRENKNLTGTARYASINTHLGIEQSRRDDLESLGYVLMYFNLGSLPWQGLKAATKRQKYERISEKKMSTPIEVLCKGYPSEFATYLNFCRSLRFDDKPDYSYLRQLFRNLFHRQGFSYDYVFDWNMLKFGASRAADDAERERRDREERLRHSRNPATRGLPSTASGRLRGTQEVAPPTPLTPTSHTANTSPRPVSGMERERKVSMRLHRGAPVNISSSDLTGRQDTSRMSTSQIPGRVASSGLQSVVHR

For `COCC(=O)NC/C=C/c1ccc2ncnc(Nc3ccc(Oc4ccc(C)nc4)c(C)c3)c2c1` [CP-724714], the pKd in assay [1], in assay [2], in assay [3], in assay [4] and in assay [5] was less than 5.00 each time.
`Nc1nc(Nc2ccc(S(N)(=O)=O)cc2)nn1C(=O)c1c(F)cccc1F` [JNJ-7706621]: the pKd in assay [2], in assay [3] and in assay [4] was less than 5.00 throughout.
Turning to `CCOc1cc2ncc(C#N)c(Nc3ccc(F)c(Cl)c3)c2cc1NC(=O)/C=C/CN(C)C` [PELITINIB], the pKd in assay [1] was less than 5.00; in assay [2], less than 5.00; in assay [3], less than 5.00; in assay [4], 5.96; in assay [5], less than 5.00.
For `Oc1ccc(-c2nc(-c3ccncc3)c(-c3ccc(F)cc3)[nH]2)cc1` [SB-202190], the pKd in assay [1] is less than 5.00; in assay [2] it was less than 5.00; in assay [3] it was less than 5.00; in assay [5], 5.57.
With `NC(=O)c1ccc(-c2nc(-c3ccc4c(c3)OCO4)c(-c3ccccn3)[nH]2)cc1` [SB-431542], the pKd in assay [1], in assay [2], in assay [3] and in assay [5] was less than 5.00 throughout.
